{"source": "paper PMC13434769", "about": "(2026)", "key": {"[1]": {"test_system": "G12 (RNA, aptamer) GGGCAACUCCAAGCUAGAUCUACCGGUAAUUUAGGUCAUUGAGUGAACAGACGUCAAGCUAGUUGGGCUACUGGCUUCUAAAACACAGGUAAAAUG", "test": "fluorescence titration (intrinsic fluorescence)", "details": "K+ (20 mM KPO4), 100 mM NaCl, 10 mM MgCl2, pH 7.5"}, "[2]": {"test_system": "tetracycline aptamer (SMFS construct) (RNA, aptamer) GGCAGGGCUGACGUAGUUGGAGUGGUGCGGGAGGAUAUAGUAAUCUGCAAAACAUACCAGAUGAAAAUCUGGAGAGGUGAAGAAUACGACCACCUGCAGAUUACUAUAUAGUGAGGGCAGAAUUCAGGUG", "test": "optical tweezers force ramp", "details": "250 mM KCl, 20 mM NaCl, 5 mM MgCl2; 40 mM HEPES pH 7.4, ~25 °C; P1 unfolding force increased"}, "[3]": {"test_system": "G12 long stem (SMFS construct) (RNA, aptamer) GGCAGGGCUGACGUAGUUGGAGUGGUGCGGGAGGGGAGUAAUCUCGGUCAUUGAGUGAACAGACGUCAAGCUAGUUGGGCUACUGGCUUCGAGAUUACUCCAGUGAGGGCAGAAUUCAGGUG", "test": "optical tweezers force ramp", "details": "250 mM KCl, 20 mM NaCl, 5 mM MgCl2; 40 mM HEPES pH 7.4, ~25 °C; intermediate I1 stabilised as in short stem"}, "[4]": {"test_system": "G12 short stem (SMFS construct) (RNA, aptamer) GGCAGGGCUGACGUAGUUGGAGUGGUGCGGGAGGCCGUGGUCAUUGAGUGAACAGACGUCAAGCUAGUUGGGCUACUGGCUUCACGGAGUGAGGGCAGAAUUCAGGUG", "test": "optical tweezers force-jump, koff/kon", "details": "250 mM KCl, 20 mM NaCl, 5 mM MgCl2; 40 mM HEPES pH 7.4, ~25 °C; near-zero force; koff 0.0055 s-1, kon 0.42 s-1 µM-1"}, "[5]": {"test_system": "G12 no stem (SMFS construct) (RNA, aptamer) GGCAGGGCUGACGUAGUUGGAGUGGUGCGGGAGGGUCAUUGAGUGAACAGACGUCAAGCUAGUUGGGCUACUGGCUUAGUGAGGGCAGAAUUCAGGUG", "test": "optical tweezers passive mode, koff/kon", "details": "250 mM KCl, 20 mM NaCl, 5 mM MgCl2; 40 mM HEPES pH 7.4, ~25 °C; extrapolated to zero force; koff 6.0 s-1"}, "[6]": {"test_system": "G12 (RNA, aptamer) GGGCAACUCCAAGCUAGAUCUACCGGUAAUUUAGGUCAUUGAGUGAACAGACGUCAAGCUAGUUGGGCUACUGGCUUCUAAAACACAGGUAAAAUG", "test": "fluorescence titration, Hill fit (ex 375 nm, em 530 nm)", "details": "20 °C; 10 nM doxycycline"}}, "data": [{"smiles": "CN(C)c1ccc(O)c2c1C[C@H]1C[C@H]3[C@H](N(C)C)C(O)=C(C(N)=O)C(=O)[C@@]3(O)C(O)=C1C2=O", "values": [{"measurement": "binding", "setting": "[1]; 20 nM minocycline", "value": "no"}]}, {"smiles": "CN(C)[C@@H]1C(=O)C(C(N)=O)=C(O)[C@@]2(O)C(=O)C3=C(O)c4c(O)cccc4[C@@](C)(O)[C@H]3C[C@@H]12", "values": [{"measurement": "binding", "setting": "[2]", "value": "yes"}, {"measurement": "binding", "setting": "[1]; 1 nM tetracycline", "value": "no"}]}, {"smiles": "Cc1c2c(c(O)c3c(O)cccc13)C(=O)[C@]1(O)C(O)=C(C(N)=O)C(=O)[C@@H](N(C)C)[C@@H]1C2", "values": [{"measurement": "binding", "setting": "[1]; 20 nM anhydrotetracycline", "value": "no"}]}, {"smiles": "CN(C)[C@@H]1C(O)=C(C(N)=O)C(=O)[C@@]2(O)C(O)=C3C(=O)c4c(O)ccc(Cl)c4[C@@](C)(O)[C@H]3C[C@@H]12", "values": [{"measurement": "binding", "setting": "[1]; 5 nM 7-chloro-tetracycline", "value": "no"}]}, {"smiles": "CN(C)[C@@H]1C(O)=C(C(N)=O)C(=O)[C@@]2(O)C(O)=C3C(=O)c4c(O)cccc4C[C@H]3C[C@@H]12", "values": [{"measurement": "binding", "setting": "[1]; 5 nM sancycline", "value": "no"}]}, {"smiles": "C[C@H]1c2cccc(O)c2C(=O)C2=C(O)[C@]3(O)C(=O)C(C(N)=O)=C(O)[C@@H](N(C)C)[C@@H]3[C@@H](O)[C@@H]21", "values": [{"measurement": "binding", "setting": "[3]", "value": "yes"}, {"measurement": "KD,0", "setting": "[4]", "value": 0.0131, "unit": "µM"}, {"measurement": "KD,0", "setting": "[5]", "value": 3.8, "unit": "µM"}, {"measurement": "KD", "setting": "[6]", "value": 0.0028, "unit": "µM"}]}]}
